Bounds are passed on as bounds.

For assay [1], the target named is mAb 31E10/E7. In words: Solution-equilibrium ELISA (Friguet) KD of NHBA fragment–mAb complexes. The settings on record: equilibrium in solution, antigen 7 to 480 nM with mAb 0.7 nM, -^§ = No interaction was detected under the tested conditions, read-out: KD ± SD (no interaction detected). The format is binding, murine. An excerpt:
Next, we sought to directly compare, for their ability to reconstitute the epitope recognized by mAb 31E10/E7, the peptides identified by peptide scanning with the fragments previously identified by PROFILER. To this end, we selected Peptide 5 (Pep-5, spanning P95-E109; Fig 5A) and FrII (D91-A128; Fig 2A) as representatives of the two categories. First, we measured the ability of the fragments to compete with the whole antigen (NHBA-NUbp-His) for binding to mAb 31E10/E7 in the ELISA inhibition assay described above. […] To further analyze this, we measured the affinities of the NHBA fragments for mAb 31E10/E7 using an ELISA assay that can provide reliable estimates of the equilibrium dissociation constant (KD) of antigen-antibody complexes in solution [20].
KD values of complexes between mAb 31E10/E7 and NHBA fragments at equilibrium in solution were measured using the ELISA test of Friguet et al, exactly as described by Heinrich et al.. […] Under these conditions, absorbance is proportional to the concentration of free mAb 31E10/E7 added to each well. The results for each antigen were analyzed using the plot described by Friguet et al ([19]; S2 Fig), which provides a KD value for the complex in solution. Results were expressed as means and standard deviations of the 4 KD values determined for each of the 4 antigen concentrations used to coat the wells.
A general note: ELISA stands for enzyme-linked immunosorbent assay.

Assay [2] deals with mAb 31E10/E7. In words: Inhibition ELISA of mAb 31E10/E7 binding to NHBA-NUbp-His. Also noted: species or system murine. An excerpt: We sought to verify whether the antigenic fragments identified by phage display analysis reacted against the 31E10/E7 mAb in a molecular context other than capsid proteins and how these binding activities compared to that of the whole antigen molecule. For this analysis, FrI and FrII were produced as GST fusion proteins and probed against the 31E10/E7 mAb in an inhibition ELISA assay. A third fragment, FrIII, encompassing residues F324-D391, was also produced in fusion with GST and used as a negative control. In the ELISA inhibition experiments, the NHBA-NUbp-His fusion protein was used as coating antigen and reactivity against 31E10/E7 was measured in the presence and in the absence of GST-FrI, GST-FrII and GST-FrIII.
The immunoreactivity of NHBA antigenic fragments against the 31E10/E7 mAb was tested using a previously described ELISA inhibition assay. Briefly, the 31E10/E7 mAb (1 μg/ml) was preincubated with micromolar concentrations of competitors (represented by the indicated NHBA fragments or by the entire antigen fused to an histidine tail) prior to the addition to microtiter wells sensitized with the whole fusion antigen (NHBA-NUbp fused to an histidine tail or NHBA-NUbp-His, 5 μg/ml). […] Percent inhibition was calculated by comparing the absorbance value of wells with and without the inhibitors.

What is called Kd is a measure of binding affinity in units of concentration. Take TPAS: on mAb 31E10/E7 [1], the Kd was above 480 nM. Also, the “competition with the whole antigen for binding to mAb 31E10/E7” value with mAb 31E10/E7 [2] (NHBA-NUbp-His coated 5 μg/ml, mAb 1 μg/ml, Fig 3B, three independent experiments) is “but not the TPAS tetrapeptide”. In the assay with mAb 31E10/E7 [2] (even at high concentrations (Fig 3B)), the “binding to the mAb” value was “unable to bind the mAb”.

Source of the values: PMC4980009, “Epitope Mapping of a Monoclonal Antibody Directed against Neisserial Heparin Binding Antigen Using Next Generation Sequencing of Antigen-Specific Libraries” (PLoS ONE, 2016).
